Source: PubChem BioAssay AID179 (DTP/NCI, 2004)
Activity calls are given as the source filed them.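 The calls were made as follows: active = compounds giving half or more protection of infected cells from virus-caused growth loss, again on retest; inactive = the rest.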 Where a SMILES comes first, the peptide text is derived from it. [ ]: non-standard residue; d: D form. The star is where a group is joined. ξ: configuration not given here. ξPhe(4-NO2) = NC(Cc1ccc([N+](=O)[O-])cc1)C(=O)O; Boc = CC(C)(C)OC(=O)*

Tested on: CEM cells HIV-1 protection, formazan growth assay
Assay: NCI AIDS Antiviral Assay
Conditions: for IC50: measured here: growth of uninfected CEM cells
Method in brief: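 CEM (human) cells, HIV-1 infected vs uninfected, 5-point dosing, formazan growth read-out. Retest threshold 50% protection.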

SMILES | EC50 [µM] | IC50 [µM] | outcome
COc1cc2nc(CC(O)c3nc4cc(OC)c(OC)cc4[nH]3)[nH]c2cc1OC (configuration not stated) | > 200 | 17.4 | –
O=c1cc(N2CCOCC2)n2c(ccc3ccccc32)n1 | > 200 | 186 | –
NCCSSCCCCSSCCN | > 200 | 12.3 | –
Cc1nn(C(=O)Cc2ccccc2)c2c1C(c1ccccc1O)SC(N)=N2 (configuration not stated) | 57.5 | 398 | –
COc1cc(/C=C2\CCc3ccccc3C2=O)ccc1O | > 200 | 9.33 | –
O=c1oc2ccccc2c2nc3cc(Cl)c(F)cc3cc12 | > 25.1 | > 25.1 | –
Cc1ccccc1NCN1C(=O)S/C(=C2\C(=O)N(C)c3ccc(Br)cc32)C1=O | > 200 | 11.7 | –
Cc1ccc2c(c1)P(=O)(O)c1cc(C)ccc1O2 | > 200 | > 200 | –
CCN(CC)CCNc1ccc2ncn3c4c(OC)ccc(OC)c4c(=O)c1c23 | > 50.1 | 1.23 | –
Cc1[nH]c2ccccc2c1C1Cc2ccccc2N1 (configuration not stated) | – | – | inactive
N#Cc1cccc(N2C(=O)c3ccc(C(=O)c4ccc5c(c4)C(=O)N(c4cccc(C#N)c4)C5=O)cc3C2=O)c1 | > 7.24 | > 7.24 | –
CCn1c(SC(C)C(=O)c2c(C)n(C)n(-c3ccccc3)c2=O)nc2ccccc2c1=O (configuration not stated) | > 112 | > 112 | –
CN1C[C@H]2[C@@H](C1=O)[C@H](c1ccc([N+](=O)[O-])cc1)ON2C | > 200 | > 200 | –
COC(=O)C1(CCC(=O)N(C)c2ccccc2)NNC2C(=O)N(c3ccccc3)C(=O)C21 (configuration not stated) | > 200 | > 200 | –
CCNC(=O)CNC(=O)C(Cc1ccc([N+](=O)[O-])cc1)NC(=O)OC(C)(C)C (configuration not stated) (Boc-[ξPhe(4-NO2)]-Gly-NHEt) | 162 | 813 | –
NC(CS)C(=O)O (configuration not stated) | > 182 | > 182 | –
CNC(=O)CN(CC(N)=O)C(=O)NC | > 891 | > 891 | –
O=C(N/N=C\c1cccc(/C=N\NC(=O)Nc2ccc(N=Nc3ccccc3)cc2)n1)Nc1ccc(N=Nc2ccccc2)cc1 | > 200 | 39.8 | –
C(=N\Nc1ccccc1)/c1nc2ccccc2nc1/C=N/Nc1ccccc1 | > 5.5 | > 5.5 | –
COC1/C=C/OC2(C)Oc3c(C)c(O)c4c(O)c(c(/C=N/n5c(=O)[nH]c6ccccc6c5=O)c(O)c4c3C2=O)NC(=O)/C(C)=C\C=C\C(C)C(O)C(C)C(O)C(C)C(OC(C)=O)C1C (configuration not stated) | > 200 | 29.5 | –
COc1c(C)c(O)c2c(c1C)OC(c1ccccc1)CC2=O (configuration not stated) | > 17.4 | > 17.4 | –
Cn1cnc([N+](=O)[O-])c1Sc1nnc(C(F)(F)F)n1C | > 813 | 4.27 | –

SMILES | EC50 [µM] | IC50 [µM] | outcome
CC(C)(C)[Si](C)(C)OCC1OC(n2ccc(=O)[nH]c2=O)C(CCN(O)CC2OC(n3ccc(=O)[nH]c3=O)C(O[Si](C)(C)C(C)(C)C)C2O[Si](C)(C)C(C)(C)C)C1O[Si](C)(C)C(C)(C)C (configuration not stated) | > 126 | 105 | –
CCOC(=O)/C(C#N)=C1\N[C@H](C(=O)OCC)CO1 | > 977 | > 977 | –
COC(OC)c1cccc2c1C(=O)CCC1(O)c3ccccc3C1C2 (configuration not stated) | > 155 | 138 | –
COC1/C=C/OC2(C)Oc3c(C)c(O)c4c(O)c(cc(OCC(=O)N(C)C)c4c3C2=O)NC(=O)/C(C)=C/C=C/C(C)C(O)C(C)C(O)C(C)C(OC(C)=O)C1C (configuration not stated) | > 200 | 31.6 | –
Cc1cccc2c1CCC21OC(=O)c2c1ccc1ccccc21 (configuration not stated) | – | – | inactive
NCC1Nc2ccccc2[C@@H](O)C1O (some centres not stated) | > 933 | > 933 | –
Clc1ccc(CSc2cnnc3ccccc23)cc1 | > 61.7 | > 61.7 | –
CC1(C)Oc2ccc3ccc(=O)oc3c2C(O)C1O (configuration not stated) | > 200 | 115 | –
CCOc1cnc([C@H]2CCC3[C@@H]4CC=C5C[C@@H](O)CC[C@]5(C)C4CC[C@@]32C)s1 (some centres not stated) | > 61.7 | > 61.7 | –
COc1ccc2cc(C(=O)c3ccccc3C(=O)O)ccc2c1 | – | – | inactive
O=C(Cc1nc2ccc(C(=O)c3ccccc3)cc2[nH]c1=O)C(=O)Nc1ccc(Br)cc1 | > 14.8 | > 14.8 | –
COc1ccc(-c2cc(-c3cc(OC)c(OC)c(OC)c3)cc(-c3cc4ccccc4oc3=O)n2)cc1 | > 200 | 155 | –
O=C(Nc1ccc(Cl)cc1)C(=O)C(C(=O)c1ccccc1-c1ccccc1)C1OC(=O)c2ccccc21 (configuration not stated) | > 70.8 | 13.2 | –
C=CCC1C(=O)Nc2cccc3ncn(c23)C1=O (configuration not stated) | > 200 | 186 | –
COc1ccc2c(c1)[n+](=O)c(C(=O)CC(=O)C(=O)Nc1cccc(Cl)c1C)c(C)n2[O-] | > 100 | 46.8 | –
NCCN.O=N[O-].O=N[O-].O=N[O-].O=N[O-].[Co+3].[K+] | > 724 | 219 | –
CC1(C)CC(C#Cc2ccccc2)CC(C)(C)N1O | > 200 | 34.7 | –
CC(C)OP(=O)(OC(C)C)C(=Nc1ccccc1)NNc1ccc([N+](=O)[O-])cc1 | > 32.4 | 21.9 | –
C/C(=N\NC(N)=S)c1sc(-n2nc(-c3ccccc3)cc2-c2ccccc2)nc1C | > 16.6 | > 16.6 | –
Cn1c(=O)c2c(=O)c(=O)[nH][nH]c2n(C)c1=O | > 200 | > 200 | –
CC1SC(C)SC(C(C)(C)O)S1 (configuration not stated) | > 32.4 | > 32.4 | –
FC(F)(F)P1C2C=CC(CC2)C1(F)F (configuration not stated) | > 251 | > 251 | –

SMILES | EC50 [µM] | IC50 [µM] | outcome
C=C1[C@H](O)[C@@]2(C(=O)N1OC)/C(=C/CC)C=CC(=O)C2O (some centres not stated) | > 891 | 331 | –
CC(=O)/C(=C/n1ccc(=O)[nH]c1=S)C(=O)Nc1ccccc1C | > 200 | > 200 | –
O=[N+]([O-])c1cc(Cl)cc2cc(Cl)cnc12 | > 200 | > 200 | –
COC(=O)CC1NC(=O)C1C(C)(OC)OC (configuration not stated) | 191 | 251 | –
C/C=C(/CCC1NCCc2c1[nH]c1ccccc21)[Si](C)(C)C (configuration not stated) | – | – | inactive
C=C1C(=O)O[C@H]2C1[C@H](OC(=O)/C(C)=C\COC(C)=O)C[C@]1(CO1)[C@@H]1[C@H](O)[C@H]3O[C@@]3(C)[C@@H]12 (some centres not stated) | – | – | inactive
O=c1n(Cc2ccccc2)c(=O)n2c(=O)n(Cc3ccccc3)c(=O)n12 | > 200 | 148 | –
O=C(O)CCCC[P+](c1ccccc1)(c1ccccc1)c1ccccc1 | > 200 | > 200 | –
CCCCS(=N)(=O)CCC(N)P(=O)(O)O (configuration not stated) | > 200 | > 200 | –
CC(C)n1c2c(c3ccccc3c1=O)C(=O)c1ccccc1-2 | > 64.6 | > 64.6 | –
CCCN1C(=O)/C(=C(/O)C(=O)OCC)C(c2ccc(OC)c(OC)c2)C1=O (configuration not stated) | – | – | inactive
CS1(=O)=NC(=NC#N)c2ccccc21 (configuration not stated) | – | – | inactive
O=C(OCCN1CCCC12CCCCC2)C(c1ccccc1)C1C=CCC1 (configuration not stated) | > 200 | 24.5 | –
CCOc1cnc([C@H]2CCC3[C@@H]4CC=C5C[C@@H](OC(C)=O)CC[C@]5(C)C4CC[C@@]32C)s1 (some centres not stated) | > 21.4 | > 21.4 | –
OC(NN=C1CCCC1)(C(F)(F)Cl)C(F)(F)Cl | > 200 | 170 | –
COc1cc(C)c(O)c(C(=O)O)c1 | – | – | inactive
C=C(Br)CNC(=O)NCCN1CCOCC1 | > 200 | > 200 | –
CNC(=O)N1CN(c2ccccc2)C2(CCN(Cc3ccccc3)CC2)C1=O | 195 | > 200 | –
O=C1CC(C(O)CO)CC(=O)N1 (configuration not stated) | > 200 | > 200 | –
O=C1OC2=C(c3ccccc3)C(=O)OC2=C1c1ccccc1 | – | – | inactive
COC1=CC(=O)C(O)=C(C[C@@]2(C)C3CCCC(C)(C)C3=CC[C@@H]2C)C1=O (some centres not stated) | > 363 | 19.5 | –
Cc1ccc(-n2c(=S)n(-c3ccccc3C)c3nc4ccccc4nc2/c3=N\Nc2ccc(Cl)cc2)cc1 | 117 | 123 | –

SMILES | EC50 [µM] | IC50 [µM] | outcome
Cc1ccc(N2C(=O)/C(=C/c3ccc(N(CCC#N)CCC#N)cc3)N=C2COc2ccc(Cl)cc2Cl)cc1 | – | – | inactive
Cc1ccc(S(=O)(=O)N2CCCC2C(=O)O[C@H]2CC[C@H]3CC=C[C@H]32)cc1 (some centres not stated) | > 200 | 20.9 | –
O=C(CCl)N1CCN(C(c2ccccc2)c2ccccc2)CC1 | > 79.4 | 3.72 | –
N#Cc1c(NN)nc(NN)c(C#N)c1-c1ccccc1 | > 97.7 | 50.1 | –
CC(=O)Oc1cc(C)c(OC(C)=O)c2c1[C@H]1CC[C@]3(C)[C@@H](OC(C)=O)CC[C@H]3[C@@H]1CC2 | > 200 | 16.6 | –
O=S(=O)(O)C(I)(I)S(=O)(=O)O | > 200 | > 200 | –
O=C1NC2C(=O)N(Cc3ccccc3)C(=O)C2N1 (configuration not stated) | > 29.5 | > 29.5 | –
C=CCNC(=S)Nc1ccc(Cl)cc1 | > 200 | 120 | –
N#Cc1c(N)nc2c(N=Nc3ccccc3)c(N)nn2c1Nc1ccccc1 | > 200 | 9.55 | –
CCOC(=O)CCC(NC(=O)c1ccc(Nc2cnc3ccc(C(F)(F)F)cc3n2)cc1)C(=O)OCC (configuration not stated) | > 200 | 18.6 | –
C=C(C)CC1(O)C(=O)C(OCC)=C1OCC (configuration not stated) | > 200 | > 200 | –
CCCCCCCCCCCCCCCCCC(=O)NCC(COP(=O)([O-])OCC[N+](C)(C)C)OC (configuration not stated) | – | – | inactive
CNC(=O)Oc1cccc(CN(C)C)c1 | > 200 | > 200 | –
O=C1CSC(c2ccc([N+](=O)[O-])cc2)N1c1nc(-c2ccc3c(c2)CCCC3)cs1 (configuration not stated) | 155 | 263 | –
CC(=O)O[C@@H]1C(O)C=C2c3cc4c(c(O)c3C(=O)NC2[C@@H]1OC(C)=O)OCO4 (some centres not stated) | – | – | inactive
c1sc(NC2=NCCO2)c2c1CCCC2 | > 200 | 166 | –
CCc1nnc(CC)n1-n1c(Cc2ccccc2)n[nH]c1=O | > 200 | > 200 | –
CSC1=C(SC)C(=O)c2cn(C)c(=O)cc2C1=O | > 200 | 0.977 | –
O=c1c2ccc(Cl)cc2oc2c(CNc3ccc(S(=O)(=O)Nc4nccs4)cc3)cccc12 | > 151 | > 151 | –
O=[N+]([O-])/C=C/COCc1cc2c(cc1Br)OCO2 | > 200 | 9.33 | –
COCN1COCN=C1NC#N | > 525 | > 525 | –
